This note sets out measurements from US11660328B2, “GLP-2 analogs and peptibodies for administration before, during or after surgery” (TAKEDA PHARMACEUTICAL COMPANY LIMITED, priority 2017, dated 2023).

The test has as its system small intestine. In words: Histology study of villi length and crypt depth (H&E sections, imagescope). In kind it is in vivo, female CD-1 mice. The following applies: after administration vs without treatment, FIGS. 1-3; for villus height: small intestine. The procedure: Various doses of GLP-2 peptibody B264 were analyzed to assess the pharmacodynamic plateau, with the primary endpoint a measurement of the small intestinal weight relative to the total body weight and a histology study of the length of villi. 11 groups of six female CD-1 mice each were formed. [table] For histology, four micron paraffin sections were prepared for H&E and Ki67 IHC staining. After whole slide scanning, an imagescope was used to measure villi length and crypt depth, and to analyze Ki67. The antibody against Ki67 is a rabbit antibody sold by Adcam®, catalog number ab 616667. The antibody was used at a working concentration of 1:100 and was detected using a Leica® Refine Kit. […] See, e.g., Example 13 of U.S. Provisional Application No. 62/548,601, filed Aug. 22, 2017 for more data and examples with respect to GLP-2 peptibody B264, GLP-2 peptibody […], and a GLP-2[[…]] peptide.

Take `CC[C@H](C)[C@H](NC(=O)[C@H](Cc1ccccc1)NC(=O)[C@H](CC(=O)O)NC(=O)[C@H](CCCNC(=N)N)NC(=O)[C@H](C)NC(=O)[C@H](C)NC(=O)[C@H](CC(C)C)NC(=O)[C@H](CC(N)=O)NC(=O)[C@H](CC(=O)O)NC(=O)[C@H](CC(C)C)NC(=O)[C@@H](NC(=O)[C@@H](NC(=O)[C@H](CC(N)=O)NC(=O)[C@H](CCSC)NC(=O)[C@H](CCC(=O)O)NC(=O)[C@H](CC(=O)O)NC(=O)[C@H](CO)NC(=O)[C@H](Cc1ccccc1)NC(=O)[C@H](CO)NC(=O)CNC(=O)[C@H](CC(=O)O)NC(=O)CNC(=O)[C@@H](N)Cc1c[nH]cn1)[C@@H](C)O)[C@@H](C)CC)C(=O)N[C@@H](CC(N)=O)C(=O)N[C@@H](Cc1c[nH]c2ccccc12)C(=O)N[C@@H](CC(C)C)C(=O)N[C@H](C(=O)N[C@@H](CCC(N)=O)C(=O)N[C@H](C(=O)N[C@@H](CCCCN)C(=O)N[C@H](C(=O)N[C@H](C(=O)N[C@@H](CC(=O)O)C(=O)O)[C@@H](C)O)[C@@H](C)CC)[C@@H](C)O)[C@@H](C)CC` [h(Gly2)GLP-2, teduglutide, reference compound]: the “crypt depth in the small intestine” value was “increased crypt depth” and the villus height entry is on record as “increased villus height”.
As for “GLP-2 peptibody K274: GLP-2 peptibody having the amino acid sequence of SEQ ID NO: 4 (GLP-2[A2G]-linker-IgG1 Fc fusion)”, the “crypt depth in the small intestine” value is recorded as “increased crypt depth” and the villus height result is “increased villus height”.
